The values that follow come from ChEMBL document CHEMBL1143682, “Investigation into the P3 binding domain of m-calpain using photoswitchable diazo- and triazene-dipeptide aldehydes: new anticataract agents” (J Med Chem, 2007).

This experiment can be described thus: Inhibition of sheep M-calpain by fluorescence based assay. Also noted: species or system Ovis aries.

Broadly, the IC50 is the concentration at which inhibition is half-maximal. Compound `CC(C)[C@H](NC(=O)c1cccc(/N=N/c2ccccc2)c1)C(=O)N[C@H](C=O)Cc1ccccc1` yielded an IC50 of 170 nM. For `CC(C)[C@H](NC(=O)c1ccc(/N=N/c2ccccc2)cc1)C(=O)N[C@H](C=O)Cc1ccccc1` the value was 35 nM.
